IC50 data for ten compounds are collected here from ChEMBL document CHEMBL4052756, “α-Pyrone derivatives with cytotoxic activities, from the endophytic fungus Phoma sp. YN02-P-3” (Bioorg Med Chem Lett, 2017).

Common to all, as to format: functional, cell-based
The subject of one experiment is HL-60. Kind of experiment: Cytotoxic activity against human HL60 cells.
For the next experiment, the system named is HCT-116. Kind of experiment: Cytotoxic activity against human HCT116 cells.
A further experiment relates to PC-3. The experiment is described as follows: Cytotoxic activity against human PC3 cells.

Where only a bound is given, the exact number is not on record here.

In general, IC50 refers to the concentration at which inhibition is half-maximal. In the case of `COC(=O)/C=C/c1oc(=O)c(COC(C)=O)c(OC)c1COC(C)=O`, the IC50 in the experiment with HL-60 was 0.52 µM; in the experiment with HCT-116 it was 1.32 µM; in the experiment on PC-3, 0.98 µM.

`COC(=O)/C=C/c1oc(=O)c(COC(C)=O)c(OC)c1CO`: the IC50 with HL-60 is 0.65 µM; with HCT-116, 2.31 µM; in the experiment on PC-3, 1.09 µM.

For the compound `COc1c(CO)c(/C=C/C(=O)O)oc(=O)c1CO`, the IC50 in the experiment with HL-60, in the experiment with HCT-116 and with PC-3 was greater than 50 µM each time.

On to `O=c1[nH]cc(F)c(=O)[nH]1` [FLUOROURACIL], for which the IC50 in the experiment on HL-60 was 2.8 µM; in the experiment on HCT-116 it was 17 µM; in the experiment with PC-3, 1.6 µM.

On to `COc1c(C)c(/C=C/C(=O)O)oc(=O)c1C`, for which the half-maximal inhibitory concentration (IC50) with HL-60, in the experiment on HCT-116 and in the experiment with PC-3 was greater than 50 µM throughout.

Consider `COC(=O)/C=C/c1oc(=O)c(CO)c(OC)c1COC(C)=O`, for which the IC50 in the experiment with HL-60 is 1.04 µM; in the experiment on HCT-116, 9.84 µM; in the experiment on PC-3 it was 5.9 µM.

As to `COc1c(C)c(/C=C/C(=O)O)oc(=O)c1CO`, the IC50 in the experiment with HL-60, with HCT-116 and with PC-3 was greater than 50 µM throughout.

`COC(=O)/C=C/c1oc(=O)c(CO)c(OC)c1CO`: the IC50 in the experiment with HL-60, in the experiment with HCT-116 and in the experiment on PC-3 was greater than 50 µM in each case.

On to `COC(=O)C1C(c2oc(=O)c(CO)c(OC)c2CO)C(C(=O)OC)C1c1oc(=O)c(CO)c(OC)c1CO` (stereo not drawn), for which the IC50 in the experiment with HL-60, in the experiment on HCT-116 and with PC-3 was greater than 50 µM each time.

As for `COC(=O)C1C(c2oc(=O)c(COC(C)=O)c(OC)c2COC(C)=O)C(C(=O)OC)C1c1oc(=O)c(COC(C)=O)c(OC)c1COC(C)=O` (stereo not drawn), inhibition in the experiment with HL-60 was half-maximal at 4.56 µM (IC50).
